“Also recorded” adds a separate entry of the source.
Assays:
[1] = system: anti-AT1 receptor auto-antibodies; assay: Neutralisation of patients' antibodies by pre-treatment with AT1 receptor peptides, read out in the cardiomyocyte bioassay; format: cell-based, human; details: for Patients' antibodies, pre-treated with peptide (beat frequency bioassay): antibody 1:40 + peptide; for Neutralisation/inhibition of the agonistic effect of the auto-antibodies on the cells: antibodies of preeclampsia patients; for Annulment of the effect of the antibody by epitope peptides: antibodies of hypertension sufferers
Description: (§1) Cultivated neo-natal rat heart cells were used as a bioassay.
To identify and characterise the AT1 receptor antibodies, a sensitive bioassay was used. […] Further, this agonistic effect was neutralised by a peptide corresponding to the second extra-cellular loop of the AT1 receptor. In order to identify the epitopes of the auto-antibodies on the second extra-cellular loops of the angiotensin II AT1 receptor, an attempt was made to neutralise the anti-AT1 receptor auto-antibodies with short overlapping peptides. […] These were the epitopes ENTNIT and AFHYESQ. In preeclampsia patients, the agonistic effect of the antibodies achieved via the AT1 receptor was only neutralised by the peptide AFHYESQ. This epitope has a special importance in this disease, as it was identified in all the patients examined. […] I.

AT1 receptor = biological target: T1, AT1 receptor (Rattus norvegicus, UniProt P25095); assay: Bioassay: beat frequency of spontaneously pulsing cultivated neo-natal rat heart cells (cardiomyocytes); format: cell-based; details: for Influence of receptor blockers on the positively chronotropic effect of the auto-antibodies: cells stimulated with anti-AT1 receptor auto-antibody; for Influence on the positively chronotropic effect of angiotensin II: cells stimulated with angiotensin II
T1 construct: endogenous in cells; host or cells: primary culture of spontaneously pulsing neonatal rat cardiomyocytes
T1 sequence (P25095 1-359): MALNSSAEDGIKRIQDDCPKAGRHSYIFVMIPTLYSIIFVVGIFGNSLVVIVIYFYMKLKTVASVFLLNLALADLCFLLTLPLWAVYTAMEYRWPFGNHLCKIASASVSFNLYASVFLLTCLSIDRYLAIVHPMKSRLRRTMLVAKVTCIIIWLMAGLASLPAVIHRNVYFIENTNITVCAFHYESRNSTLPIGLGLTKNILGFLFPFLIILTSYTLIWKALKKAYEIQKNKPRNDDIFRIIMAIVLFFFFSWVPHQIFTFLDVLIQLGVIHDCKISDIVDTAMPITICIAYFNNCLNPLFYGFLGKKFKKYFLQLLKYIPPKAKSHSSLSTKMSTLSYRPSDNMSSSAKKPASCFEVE
Description: The bio-assay entails • spontaneously pulsing neo-natal cardiomyocytes in primary culture or • cardiomyocytes differentiated from undifferentiated embryonal stem cells • in one culture medium
as §1
To identify and characterise the AT1 receptor antibodies, a sensitive bioassay was used. […] In order to identify the epitopes of the auto-antibodies on the second extra-cellular loops of the angiotensin II AT1 receptor, an attempt was made to neutralise the anti-AT1 receptor auto-antibodies with short overlapping peptides. […] I.

| Compound | Patients' antibodies, pre-treated with peptide (beat frequency bioassay) ([1]; Patient No. 1) | Patients' antibodies, pre-treated with peptide (beat frequency bioassay) ([1]; Patient No. 2) | Neutralisation/inhibition of the agonistic effect of the auto-antibodies on the cells [1] | further results |
| --- | --- | --- | --- | --- |
| ENTNIT | – | – | – | Annulment of the effect of the antibody by epitope peptides [1]: annul the effect of the antibody |
| Cc1cc(Cn2cnc3c2C[C@@H](C(=O)O)N(C(=O)C(c2ccccc2)c2ccccc2)C3)ccc1N(C)C [PD 123319] | – | – | – | Influence of receptor blockers on the positively chronotropic effect of the auto-antibodies (AT1 receptor): no influence |
| AFHYESQ | 1.2 ± 0.84 | 1.6 ± 1.24 | inhibits the effect; also recorded: neutralised | Annulment of the effect of the antibody by epitope peptides [1]: annul the effect of the antibody |
| loop II peptides: peptides portraying the part of the AT1 receptor corresponding to loop II (IHRNVFFIENTNITVCAFHYESQNSTL) | – | – | inhibit the antibody effect | Neutralisation/inhibition of the agonistic effect of the auto-antibodies on the cells ([1]; listed as peptide corresponding to the second extra-cellular loop of the AT1 receptor): neutralised |
| CCCCc1nc(Cl)c(CO)n1Cc1ccc(-c2ccccc2-c2nn[nH]n2)cc1 [Losartan] | – | – | – | Influence on the positively chronotropic effect of angiotensin II (AT1 receptor): blocked; Influence on the positively chronotropic effect of angiotensin II (AT1 receptor; listed as Losastan): inhibited; Influence of receptor blockers on the positively chronotropic effect of the auto-antibodies (AT1 receptor): stopped; Influence of receptor blockers on the positively chronotropic effect of the auto-antibodies (AT1 receptor; listed as Losastan): inhibited |
| angiotensin II [angiotensin-II] | – | – | – | Chronotropic effect on cardiomyocytes (beat frequency / pulsation rate) (AT1 receptor; agonist alone): increase of the beat frequency |

Continued, in another order:

| Patients' antibodies, pre-treated with peptide (beat frequency bioassay) ([1]; Patient No. 1) | Patients' antibodies, pre-treated with peptide (beat frequency bioassay) ([1]; Patient No. 2) | Compound | Neutralisation/inhibition of the agonistic effect of the auto-antibodies on the cells [1] | further results |
| --- | --- | --- | --- | --- |
| 0.8 ± 1.16 | 0.8 ± 0.80 | SHFYQTR [function-analog peptide] | neutralise the antibodies | – |
| 2.4 ± 0.72 | 2.8 ± 1.20 | GYYFDTN [function-analog peptide] | neutralise the antibodies | – |

Source: US7745139B1, “Peptides of the AT1 receptor and their uses” (Max-Delbrück-Centrum für Molekulare Medizin, priority 1998, dated 2010)
